Reference: patent US20060178394A1, “Pharmaceutical compositions comprising apomorphine for pulmonary inhalation” (priority 2003, published 2006)
“Also recorded” adds a separate entry of the source. Where a name gives a salt, the structure may show the parent alone. Read-outs that look alike come from different tables or passages of the source.

Columns and labels:
[1] = system: patients (quality of erection in response to VSS); experiment: Clinical study (Example 14): erection response to visual sexual stimulation after DPI inhalation; assay type: in vivo, human; conditions: for Number of patients with quality grade 0, No effect / Number of patients with quality grade 1, Some tumescence, no rigidity / Number of patients with quality grade 2, Some tumescence and rigidity / Number of patients with quality grade 3, Partial erection / Number of patients with quality grade 4, Full erection: ITT; for Effective? / Responding (subjects with grade 3 or 4 erection) / Response rate: ITT population; for Duration, Mean: 60 min test period
Experimental: During each treatment, a patient was administered the given dose and was left alone to watch an hour of visual sexual stimulation (VSS). […] After 60 minutes, the patient's were asked to rate the quality and duration of their response to VSS. In this regard, the quality of response is defined as one of […]: 0: no effect; 1: some tumescence, no rigidity; 2: some tumescence, some rigidity, but not suitable for penetration; 3: rigidity and tumescence that would enable penetration but is not complete erection; 4: complete erection.
This study was conducted in a double blind fashion, where both the healthcare professional administering the treatment and the patient were not informed as to the actual dose being administered. The patients who participated in this study were randomised.
The primary measure of efficacy, as defined in the protocol, was the proportion of subjects reporting a grade 3 or 4 erection, using general criteria defined in the International Index of Erectile Function (IIEF). Grade 3 and 4 erections are regarded as “sufficient for successful intercourse”.

[2] = Adverse event monitoring in the clinical study of Example 14; assay type: in vivo, human; conditions: for All adverse events: subjects with AE, %: safety population
Text: Adverse events were monitored during each dosing period. The proportion of patients experiencing one or more adverse events was similar in all four treatment groups. No serious adverse events were observed and no adverse event led to the premature discontinuation of any subject. All adverse events were mild or moderate in severity and occurred in a small percentage of the groups treated. Table 9 is a summary of all treatment related adverse events, and Table 10 breaks treatment-related adverse events down by body system.

[3] = Blood analysis 70 minutes after inhalation (Example 14); assay type: in vivo; conditions: human, inhaled, 34 patients
Experimental: For each patient, blood samples were taken 70 minutes after inhalation. The blood samples were analysed, and the blood levels for 400 and 800 microgram doses of apomorphine for each of the 34 patients that completed the test are set forth in Table 11 in nanograms per millilitre. It should be appreciated from the data discussed in Example 15 below that these blood samples were actually taken long after the plasma concentration peak.

[4] = Phase I study: plasma pharmacokinetics of single inhaled doses (Example 15); assay type: in vivo, human; conditions: for Tmax: median values; for Cmax: healthy male volunteers
Experimental: A phase I, double blind, randomised, placebo controlled study was conducted examining the safety, tolerability and pharmacokinetics of single 600 μg, 900 μg and 1200 μg doses in 16 healthy male volunteers. No evaluation for efficacy was conducted during the clinical study.
Pharmacokinetic plasma sampling was conducted pre-dose and at the following intervals post dose administration: 1 minute, 3 minutes, 5 minutes, 10 minutes, 15 minutes, 30 minutes, 45 minutes, 1 hour, 1.5 hours, 2 hours, 4 hours, 8 hours, 12 hours and 24 hours.
The following pharmacokinetic parameters were derived from the plasma apomorphine concentrations by non-compartmental analysis.
It should be noted that the tmax is represented as median values.

[5] = Solubility of apomorphine HCl in HFA propellant systems (solution pMDI); assay type: physicochemical
Experimental: However, conventional solution pMDI techniques are not believed to be appropriate for the delivery of apomorphine or its pharmaceutically acceptable salts with HFA propellants. Specifically, apomorphine base is too unstable to be formulated using current approaches and apomorphine salts are too polar to be formulated as solutions in HFA propellants. […] Even with such a system, a solution concentration of <25 μg/dose is achieved, which is well below the effective doses described above in connection with Dry Powder Inhalers.

[6] = intranasal delivery, clinical setting; Nastech studies; cited from earlier work
[7] = Drug retention and degradation in PE and PVC blisters
[8] = 200 μg inhaled, grade 3 and 4 responders
[9] = 400 μg inhaled, listed as apomorphine HCl, hydrochloride
[10] = 400 μg inhaled, grade 3 and 4 responders
[11] = 800 μg inhaled, listed as apomorphine HCl, hydrochloride
[12] = male, human, plasma, inhaled or intranasal, 600 ug, 600 μg single inhaled dose, mean ± standard error
[13] = male, human, plasma, inhaled or intranasal, 900 ug, 900 μg single inhaled dose, mean ± standard error
[14] = male, human, plasma, inhaled or intranasal, 1200 ug, 1200 μg single inhaled dose, mean ± standard error

Structure (SMILES): CN1CCc2cccc3c2[C@H]1Cc1ccc(O)c(O)c1-3 [Apomorphine HCl, apomorphine hydrochloride]
- Duration ([1]; 200 μg inhaled): 24 min
- Duration, Max ([1]; 200 μg inhaled): 47 min
- Duration, Median ([1]; 200 μg inhaled): 31.5 min
- Onset of an erection in one patient ([1]; 200 μg inhaled, FIG. 12): about 40 minutes
- Number of patients with quality grade 0, No effect ([1]; 200 μg inhaled): 11
- Number of patients with quality grade 1, Some tumescence, no rigidity ([1]; 200 μg inhaled): 10
- Number of patients with quality grade 2, Some tumescence and rigidity ([1]; 200 μg inhaled): 6
- Number of patients with quality grade 3, Partial erection ([1]; 200 μg inhaled): 6
- Number of patients with quality grade 4, Full erection ([1]; 200 μg inhaled): 2
- Effective? ([1]; 200 μg inhaled): No
- Responding (subjects with grade 3 or 4 erection) ([1]; 200 μg inhaled, 35 evaluated): 8
- Response rate ([1]; 200 μg inhaled, hydrochloride): 22.9%
- Duration, Mean ([1]; 200 μg inhaled, N 8): 33.3 min
- Onset, Max [1, 8]: 20 min post dose
- Onset, Min [1, 8]: 8 min post dose
- Onset, Mean ([1]; 200 μg inhaled, grade 3 and 4 responders, N 8): 13 min post dose
- Duration ([1]; 400 μg inhaled): 4 min
- Duration, Max ([1]; 400 μg inhaled): 54 min
- Duration, Median ([1]; 400 μg inhaled): 38 min
- Onset of an erection in one patient ([1]; 400 μg inhaled, FIG. 13): about 3 minutes
- Number of patients with quality grade 0, No effect ([1]; 400 μg inhaled): 8
- Number of patients with quality grade 1, Some tumescence, no rigidity ([1]; 400 μg inhaled): 6
- Number of patients with quality grade 2, Some tumescence and rigidity ([1]; 400 μg inhaled): 3
- Number of patients with quality grade 3, Partial erection ([1]; 400 μg inhaled): 8
- Number of patients with quality grade 4, Full erection ([1]; 400 μg inhaled): 8
- Responding (subjects with grade 3 or 4 erection) ([1]; 400 μg inhaled, 33 evaluated): 16
- Effective? ([1]; 400 μg inhaled, listed as apomorphine HCL, hydrochloride): effective
- Effective? [1, 9]: effective and Yes
- Response rate [1, 9]: 48.5%
- Duration, Mean ([1]; 400 μg inhaled, N 16): 31.1 min
- Onset, Max [1, 10]: 28 min post dose
- Onset, Median [1, 10]: 8 min post dose
- Onset, Mean ([1]; 400 μg inhaled, grade 3 and 4 responders, N 16): 11 min post dose
- Onset, Min ([1]; 400 μg inhaled, grade 3 and 4 responders, hydrochloride): 3 min post dose
- Duration ([1]; 800 μg inhaled): 6 min
- Duration, Max ([1]; 800 μg inhaled): 54 min
- Duration, Median ([1]; 800 μg inhaled): 36 min
- Onset of an erection in one patient ([1]; 800 μg inhaled, FIG. 14): about 4 minutes
- Number of patients with quality grade 1, Some tumescence, no rigidity ([1]; 800 μg inhaled): 3
- Number of patients with quality grade 2, Some tumescence and rigidity ([1]; 800 μg inhaled): 7
- Number of patients with quality grade 3, Partial erection ([1]; 800 μg inhaled): 6
- Number of patients with quality grade 4, Full erection ([1]; 800 μg inhaled): 14
- Responding (subjects with grade 3 or 4 erection) ([1]; 800 μg inhaled, 34 evaluated): 20
- Effective? ([1]; 800 μg inhaled, listed as apomorphine HCL, hydrochloride): effective
- Effective? [1, 11]: effective and Yes
- Response rate [1, 11]: 58.8%
- Duration, Mean ([1]; 800 μg inhaled, N 19): 31.2 min
- Onset, Max ([1]; 800 μg inhaled, grade 3 and 4 responders): 17 min post dose
- Onset, Mean ([1]; 800 μg inhaled, grade 3 and 4 responders, N 19): 10 min post dose
- Onset, Min ([1]; 800 μg inhaled, grade 3 and 4 responders, hydrochloride): 3 min post dose
- Lowest inhaled dose at which the clinical effect is observed ([1]; pulmonary inhalation): 400 µg
- Treatment-related AE: Cough, % ([2]; 200 μg inhaled): 3%
- Treatment-related AE: Dizziness, % ([2]; 200 μg inhaled): 3%
- Treatment-related AE: Nasal congestion, % ([2]; 200 μg inhaled): 3%
- Treatment-related AE: Nervous system disorders, % ([2]; 200 μg inhaled): 3%
- Treatment-related AE: Respiratory, thoracic & mediastinal disorders, % ([2]; 200 μg inhaled): 3%
- Treatment-related AE: Sneezing, % ([2]; 200 μg inhaled): 3%
- Treatment-related adverse events: subjects with AE, % ([2]; 200 μg inhaled): 6%
- All adverse events: subjects with AE, % ([2]; 200 μg inhaled): 9%
- Treatment-related AE: Dry throat, % ([2]; 400 μg inhaled): 3%
- Treatment-related AE: Pharyngolaryngeal pain, % ([2]; 400 μg inhaled): 6%
- Treatment-related AE: Respiratory, thoracic & mediastinal disorders, % ([2]; 400 μg inhaled): 9%
- Treatment-related adverse events: subjects with AE, % ([2]; 400 μg inhaled): 9%
- All adverse events: subjects with AE, % ([2]; 400 μg inhaled): 9%
- Treatment-related AE: Dizziness, % ([2]; 800 μg inhaled): 6%
- Treatment-related AE: Gastrointestinal disorders, % ([2]; 800 μg inhaled): 3%
- Treatment-related AE: Nausea, % ([2]; 800 μg inhaled): 3%
- Treatment-related AE: Nervous system disorders, % ([2]; 800 μg inhaled): 6%
- Treatment-related adverse events: subjects with AE, % ([2]; 800 μg inhaled): 6%
- All adverse events: subjects with AE, % ([2]; 800 μg inhaled, hydrochloride): 6%
- concentration at 70 min ([3]; 400 μg, 400 μg inhaled, read-out: Blood level 70 minutes after dosing, Mean): 0.215 ng/mL
- concentration at 70 min ([3]; 400 μg, 400 μg inhaled, read-out: Blood level 70 minutes after dosing, Median): 0.217 ng/mL
- concentration at 70 min ([3]; 800 μg, 800 μg inhaled, read-out: Blood level 70 minutes after dosing, Mean): 0.608 ng/mL
- concentration at 70 min ([3]; 800 μg, 800 μg inhaled, read-out: Blood level 70 minutes after dosing, Median): 0.567 ng/mL
- AUC0-∞ ([4]; 600 μg single inhaled dose, mean ± standard error): 176.4 ± 26.9 ng·min/mL
- Tmax ([4]; 900 μg single inhaled dose, hydrochloride): 1 min
- Tmax ([4]; 1200 μg single inhaled dose, hydrochloride): 1 min
- Dose proportionality for Cmax, AUC0-∞ and AUC0-t ([4]; 600, 900, 1200 μg inhaled): demonstrated
- AUC(0-inf) ([4]; male, human, plasma, inhaled or intranasal, 600 ug, 600 μg inhaled, comparison table with Uprima): 2.2 ng·h/mL
- Cmax [4, 12]: 3.5 to 4.9 ng/mL
- AUC(0-t) [4, 12]: 2.23 ng·h/mL
- Tmax ([4]; male, human, plasma, inhaled or intranasal, 600 ug, 600 μg single inhaled dose, read-out: tmax (converted)): 3 min
- AUC(0-inf) ([4]; male, human, plasma, inhaled or intranasal, 900 ug, 900 μg inhaled, comparison table with Uprima): 3.4 ng·h/mL
- Cmax [4, 13]: 7.4 to 8.8 ng/mL
- AUC(0-inf) [4, 13]: 3.84 ng·h/mL
- AUC(0-t) [4, 13]: 3.42 ng·h/mL
- Tmax ([4]; male, human, plasma, inhaled or intranasal, 900 ug, 900 μg single inhaled dose, read-out: tmax (converted)): 1 min
- AUC(0-inf) ([4]; male, human, plasma, inhaled or intranasal, 1200 ug, 1200 μg inhaled, comparison table with Uprima): 5.5 ng·h/mL
- Cmax [4, 14]: 9.2 to 16.2 ng/mL
- AUC(0-inf) [4, 14]: 5.5 ng·h/mL
- AUC(0-t) [4, 14]: 4.93 ng·h/mL
- Tmax ([4]; male, human, plasma, inhaled or intranasal, 1200 ug, 1200 μg single inhaled dose, read-out: tmax (converted)): 1 min
- Ethanol required for suitable or acceptable solubility ([5]; HFA propellant solution pMDI systems): at least 50%
- Solution concentration achieved ([5]; HFA propellant system with at least 50% ethanol): < 25 μg/dose
- Dose that can be administered without causing unacceptable side effects [6]: more than 2 mg
- Mean drug retention, PE blisters ([7]; DUSA): 43.6 µg
- Mean drug retention, PVC blisters ([7]; DUSA): 12.9 µg
- Mean drug retention, PE blisters ([7]; Initial stability): 44.7 µg
- Mean drug retention, PVC blisters ([7]; Initial stability): 13.9 µg
- Chemical stability in the presence of polyethylene (PE blisters) ([7]; initial stability data, related substance peaks after 1 month, hydrochloride): chemically degrades; also recorded: degradation of the formulated product takes place
